# Experimental data: US10894036B2, “Use of marizomib for the treatment of central nervous system (CNS) cancers” (Celgene International II Sàrl, priority 2016, dated 2021)
# Assay: Phase 1/2 MRZ + BEV and MRZ monotherapy in recurrent G4 MG: adverse events, DLT
# Settings: for Ataxia: Treatment Related Grade ≥3 AE, # patients / Confusional State: Treatment Related Grade ≥3 AE, # patients / Delusion: Treatment Related Grade ≥3 AE, # patients / Dyspnea: Treatment Related Grade ≥3 AE, # patients / Embolism: Treatment Related Grade ≥3 AE, # patients / Fall: Treatment Related Grade ≥3 AE, # patients / Fatigue: Treatment Related Grade ≥3 AE, # patients / Hallucination: Treatment Related Grade ≥3 AE, # patients / Headache: Treatment Related Grade ≥3 AE, # patients / Hypertension: Treatment Related Grade ≥3 AE, # patients / Hyponatremia: Treatment Related Grade ≥3 AE, # patients / Insomnia: Treatment Related Grade ≥3 AE, # patients / Intracranial Hemorrhage: Treatment Related Grade ≥3 AE, # patients / Optic Nerve Disorder: Treatment Related Grade ≥3 AE, # patients / Proteinuria: Treatment Related Grade ≥3 AE, # patients: attributed to labelled agent
# [1] = MRZ 0.7 mg/m^2 + BEV, Cohort 2, N = 3
# [2] = MRZ 0.7 mg/m^2 Cohort 2 (N = 3)
# [3] = MRZ 0.8 mg/m^2 + BEV N = 27, MRZ 0.8 mg/m^2 monotherapy N = 30
# [4] = MRZ 0.8 mg/m^2 + BEV, Cohorts 3 & 4, N = 27
# [5] = MRZ 0.8 mg/m^2 + BEV, N = 27, related to the labelled drug
# [6] = MRZ 0.8 mg/m^2 Cohorts 3 & 4 (N = 27)
# [7] = MRZ 0.8 mg/m^2 monotherapy, N = 30
smiles,measurement,setting,value
C[C@@]12OC(=O)[C@]1([C@@H](O)[C@@H]1C=CCCC1)NC(=O)[C@@H]2CCCl [marizomib],"Confusional State, Treatment Related Grade ≥3 AE, patients",[1],0
same,"Delusion, Treatment Related Grade ≥3 AE, patients",[1],0
same,"Dyspnea, Treatment Related Grade ≥3 AE, patients",[1],0
same,"Embolism, Treatment Related Grade ≥3 AE, patients",[1],0
same,"Fall, Treatment Related Grade ≥3 AE, patients",[1],0
same,"Fatigue, Treatment Related Grade ≥3 AE, patients",[1],0
same,"Hallucination, Treatment Related Grade ≥3 AE, patients",[1],0
same,"Headache, Treatment Related Grade ≥3 AE, patients",[1],0
same,"Hypertension, Treatment Related Grade ≥3 AE, patients",[1],0
same,"Hyponatremia, Treatment Related Grade ≥3 AE, patients",[1],0
same,"Insomnia, Treatment Related Grade ≥3 AE, patients",[1],0
same,"Intracranial Hemorrhage, Treatment Related Grade ≥3 AE, patients",[1],0
same,"Optic Nerve Disorder, Treatment Related Grade ≥3 AE, patients",[1],0
same,"Proteinuria, Treatment Related Grade ≥3 AE, patients",[1],0
same,"Ataxia, Treatment Related Grade ≥3 AE, patients","MRZ 0.7 mg/m^2 + BEV, Cohort 2, N = 3, related to the labelled drug",0
same,"Ataxia: Treatment Related Grade ≥3 AE, # patients",[2],0
same,"Confusional State: Treatment Related Grade ≥3 AE, # patients",[2],0
same,"Delusion: Treatment Related Grade ≥3 AE, # patients",[2],0
same,"Dyspnea: Treatment Related Grade ≥3 AE, # patients",[2],0
same,"Embolism: Treatment Related Grade ≥3 AE, # patients",[2],0
same,"Fall: Treatment Related Grade ≥3 AE, # patients",[2],0
same,"Fatigue: Treatment Related Grade ≥3 AE, # patients",[2],0
same,"Hallucination: Treatment Related Grade ≥3 AE, # patients",[2],0
same,"Headache: Treatment Related Grade ≥3 AE, # patients",[2],0
same,"Hypertension: Treatment Related Grade ≥3 AE, # patients",[2],0
same,"Hyponatremia: Treatment Related Grade ≥3 AE, # patients",[2],0
same,"Insomnia: Treatment Related Grade ≥3 AE, # patients",[2],0
same,"Intracranial Hemorrhage: Treatment Related Grade ≥3 AE, # patients",[2],0
same,"Optic Nerve Disorder: Treatment Related Grade ≥3 AE, # patients",[2],0
same,"Proteinuria: Treatment Related Grade ≥3 AE, # patients",[2],0
same,"Fatigue, treatment-related AE, patients","MRZ 0.8 mg/m^2 + BEV Cohorts 3 & 4, N = 27, related to the labelled drug (MRZ + BEV = related to both)",19 (70.4%)
same,Patients with at Least One TEAE,"MRZ 0.8 mg/m^2 + BEV Cohorts 3 & 4 N = 27, MRZ 0.8 mg/m^2 monotherapy N = 30",29 (96.7%) ^[1]
same,"Anaemia, adverse event, patients",[3],6 (20.0%)
same,"Ataxia, adverse event, patients",[3],6 (20.0%)
same,"Confusional state, adverse event, patients",[3],7 (23.3%)
same,"Constipation, adverse event, patients",[3],9 (30.0%)
same,"Diarrhoea, adverse event, patients",[3],7 (23.3%)
same,"Dizziness, adverse event, patients",[3],5 (16.7%)
same,"Dysarthria, adverse event, patients",[3],5 (16.7%)
same,"Dysphonia, adverse event, patients",[3],1 (3.3%)
same,"Epistaxis, adverse event, patients",[3],2 (6.7%)
same,"Fall, adverse event, patients",[3],4 (13.3%)
same,"Fatigue, adverse event, patients",[3],19 (63.3%)
same,"Hallucination, adverse event, patients",[3],12 (40.0%)
same,"Headache, adverse event, patients",[3],12 (40.0%)
same,"Hyperglycaemia, adverse event, patients",[3],8 (27.6%)
same,"Hypertension, adverse event, patients",[3],4 (13.3%)
same,"Hypokalemia, adverse event, patients",[3],8 (27.6%)
same,"Infusion site pain, adverse event, patients",[3],3 (10.0%)
same,"Insomnia, adverse event, patients",[3],14 (46.7%)
same,"Nausea, adverse event, patients",[3],11 (36.7%)
same,"Platelet count decreased, adverse event, patients",[3],7 (23.3%)
same,"Vomiting, adverse event, patients",[3],9 (30.0%)
same,"Confusional State, Treatment Related Grade ≥3 AE, patients",[4],0
same,"Delusion, Treatment Related Grade ≥3 AE, patients",[4],1
same,"Dyspnea, Treatment Related Grade ≥3 AE, patients",[4],1
same,"Embolism, Treatment Related Grade ≥3 AE, patients",[4],0
same,"Fall, Treatment Related Grade ≥3 AE, patients",[4],1
same,"Fatigue, Treatment Related Grade ≥3 AE, patients",[4],1
same,"Hallucination, Treatment Related Grade ≥3 AE, patients",[4],1
same,"Headache, Treatment Related Grade ≥3 AE, patients",[4],3
same,"Hypertension, Treatment Related Grade ≥3 AE, patients",[4],0
same,"Hyponatremia, Treatment Related Grade ≥3 AE, patients",[4],1
same,"Insomnia, Treatment Related Grade ≥3 AE, patients",[4],1
same,"Intracranial Hemorrhage, Treatment Related Grade ≥3 AE, patients",[4],0
same,"Optic Nerve Disorder, Treatment Related Grade ≥3 AE, patients",[4],0
same,"Proteinuria, Treatment Related Grade ≥3 AE, patients",[4],0
same,"Ataxia, Treatment Related Grade ≥3 AE, patients","MRZ 0.8 mg/m^2 + BEV, Cohorts 3 & 4, N = 27, related to the labelled drug",1
same,"Anaemia, treatment-related AE, patients",[5],5 (18.5%)
same,"Ataxia, treatment-related AE, patients",[5],7 (25.9%)
same,"Confusional state, treatment-related AE, patients",[5],7 (25.9%)
same,"Constipation, treatment-related AE, patients",[5],5 (18.5%)
same,"Diarrhoea, treatment-related AE, patients",[5],8 (29.6%)
same,"Dizziness, treatment-related AE, patients",[5],8 (29.6%)
same,"Dysphonia, treatment-related AE, patients",[5],1 (3.7%)
same,"Epistaxis, treatment-related AE, patients",[5],0 (0.0%)
same,"Fall, treatment-related AE, patients",[5],3 (11.1%)
same,"Hallucination, treatment-related AE, patients",[5],12 (44.4%)
same,"Headache, treatment-related AE, patients",[5],12 (44.4%)
same,"Hypertension, treatment-related AE, patients",[5],1 (3.7%)
same,"Infusion site pain, treatment-related AE, patients",[5],4 (14.8%)
same,"Muscular weakness, treatment-related AE, patients",[5],3 (11.1%)
same,"Nausea, treatment-related AE, patients",[5],17 (63.0%)
same,"Platelet count decreased, treatment-related AE, patients",[5],2 (7.4%)
same,"Stomatitis, treatment-related AE, patients",[5],3 (11.1%)
same,"Upper-airway cough syndrome, treatment-related AE, patients",[5],0 (0.0%)
same,"Vomiting, treatment-related AE, patients",[5],15 (55.6%)
same,"Ataxia: Treatment Related Grade ≥3 AE, # patients",[6],1
same,"Confusional State: Treatment Related Grade ≥3 AE, # patients",[6],0
same,"Delusion: Treatment Related Grade ≥3 AE, # patients",[6],1
same,"Dyspnea: Treatment Related Grade ≥3 AE, # patients",[6],1
same,"Embolism: Treatment Related Grade ≥3 AE, # patients",[6],0
same,"Fall: Treatment Related Grade ≥3 AE, # patients",[6],1
same,"Fatigue: Treatment Related Grade ≥3 AE, # patients",[6],1
same,"Hallucination: Treatment Related Grade ≥3 AE, # patients",[6],1
same,"Headache: Treatment Related Grade ≥3 AE, # patients",[6],3
same,"Hypertension: Treatment Related Grade ≥3 AE, # patients",[6],0
same,"Hyponatremia: Treatment Related Grade ≥3 AE, # patients",[6],1
same,"Insomnia: Treatment Related Grade ≥3 AE, # patients",[6],1
same,"Intracranial Hemorrhage: Treatment Related Grade ≥3 AE, # patients",[6],0
same,"Optic Nerve Disorder: Treatment Related Grade ≥3 AE, # patients",[6],0
same,"Proteinuria: Treatment Related Grade ≥3 AE, # patients",[6],0
same,"Anaemia, MRZ related AE, patients",[7],5 (16.7%
same,"Ataxia, MRZ related AE, patients",[7],5 (16.7%)
same,"Confusional state, MRZ related AE, patients",[7],6 (20.0%)
same,"Constipation, MRZ related AE, patients",[7],6 (20.0%)
same,"Diarrhoea, MRZ related AE, patients",[7],7 (23.3)
same,"Dizziness, MRZ related AE, patients",[7],3 (10.0%)
same,"Dysphonia, MRZ related AE, patients",[7],0
same,"Epistaxis, MRZ related AE, patients",[7],1 (3.3%)
same,"Fall, MRZ related AE, patients",[7],1 (3.3%)
same,"Fatigue, MRZ related AE, patients",[7],18 (60.0%)
same,"Hallucination, MRZ related AE, patients",[7],11 (36.7%)
same,"Headache, MRZ related AE, patients",[7],11 (36.7%)
same,"Infusion site pain, MRZ related AE, patients",[7],2 (6.7%)
same,"Muscular weakness, MRZ related AE, patients",[7],0
same,"Nausea, MRZ related AE, patients",[7],9 (30.0%)
same,"Platelet count decreased, MRZ related AE, patients",[7],0
same,"Stomatitis, MRZ related AE, patients",[7],0
same,"Upper-airway cough syndrome, MRZ related AE, patients",[7],0
same,"Vomiting, MRZ related AE, patients",[7],7 (23.3)
